The test system of one data set is HaCaT cells. Put plainly: MTT cytotoxicity assay. The class given is cell-based, human. The following applies: for relative toxicity on HaCaT cells: 6-24 h; for pIC50: Homo sapiens, HaCaT cell viability. As for the experimental part:
Immortalized HaCaT cells from the original depositor (DKFZ, Heidelberg) were purchased from CLS-Cell Lines Service (code 300493) and were of […] skin type (phototype). In all experiments, the HaCaT cells were cultured at 37 °C in a humidified 5% CO2 atmosphere in high-glucose Dulbecco’s Modified Eagle Medium (DMEM-HG), which was supplemented with 10% fetal bovine serum, and were used at the 5th–6th passage. Specific pCBs (CBG, CBC, THCV and CBGA) were used to treat the HaCaT cells at different time points (6 h, 12 h and 24 h) and at different concentrations (0.5 µM, 1.0 µM, 2.5 µM, 5.0 µM, 10 µM and 25 µM). Various doses of these pCBs were added directly to culture medium (with 1% fetal bovine serum) and the vehicles alone were added to controls, as follows: 0.8% methanol for CBG and CBC; 0.6% methanol for THCV; 0.6% acetonitrile for CBGA.
The HaCaT cells were seeded into 96-well plates at a density of 1 × 10^4 per well, incubated overnight and then treated with the selected pCBs at different concentrations (0.5 μM, 1.0 μM, 2.5 μM, 5.0 μM, 10 μM and 25 μM) for 6 h, 12 h and 24 h. Cell viability was assessed using a mitochondrial-dependent reduction of 3-[4,5-dimethylthiazol-2-yl]-2,5-diphenyl tetrazolium bromide (MTT) to purple formazan. After 4 h, the MTT solution was discarded and dimethyl sulfoxide (DMSO) was added to dissolve the formazan crystals. The cell viability was calculated by subtracting the 630 nm OD background from the 570 nm OD total signal of the cell-free blank of each sample and was expressed as percentage of the control (100%).

A further data set relates to FAAH. Put plainly: FAAH activity assay in membranes of treated cells. The following applies: HaCaT cells, half-IC50 amount, 24 h, vs. control. The format is cell-based, human. As for the experimental part:
FAAH Assay: The HaCaT cells were seeded into 6-well plates at a density of 4 × 10^4 per well, incubated overnight and then treated with the selected pCBs (6.0 µM of CBG, 4.0 µM of CBC, 9.0 µM of THCV and 13.0 µM of CBGA) for 24 h. The cell pellets were collected and FAAH activity was determined using membranes that were isolated from these cells. Briefly, the membranes were incubated at pH 7.4 with 10 μM of [^3H]AEA and 50 mM of Tris–HCl, 0.05% BSA at 37 °C in water bath for 30 min. The reaction was blocked with 1 mL of chloroform–methanol (1:1 v/v) and centrifuged at 3000 rpm for 10 min at 4 °C. The aqueous (top) layer was collected and transferred into scintillation vials. The amount of [^3H]ethanolamine that was released was expressed as pmol per min per mg of protein, as reported in [67].

Another data set relates to MAGL. The data set can be described thus: MAGL activity assay in membranes of treated cells. The format is cell-based, human. The conditions noted are these: HaCaT cells, half-IC50 amount, 24 h, vs. control. The protocol: MAGL Assay: The HaCaT cells were seeded into 6-well plates at a density of 4 × 10^4 per well, incubated overnight and then treated with the selected pCBs (6.0 µM of CBG, 4.0 µM of CBC, 9.0 µM of THCV and 13.0 µM of CBGA) for 24 h. The cell pellets were collected and MAGL activity was determined using membranes that were isolated from these cells using the synthetic substrate arachidonoyl-1-thio-glycerol (200 μM) in 10 mM of Tris and 1 mM of EDTA pH 7.2 at 4 °C for 15 min [68]. The MAGL inhibitor JZL184 (4 μM), which was purchased from Sigma-Aldrich (St. Louis, MO, USA), was used to fully erase the enzyme activity as a control.

The test system of a further data set is TRPV1. The data set can be described thus: TRPV1 calcium assay (capsaicin-triggered intracellular Ca2+ release). The class given is cell-based, human. The conditions noted are these: HaCaT cells, half-IC50 amount, 24 h; capsaicin 1 µM; vs. control. As for the experimental part:
The effects of the pCBs on intracellular Ca^2+ release that was induced by TRPV1 activation was determined using the selective intracellular fluorescent probe Fluo-3 AM (Molecular probes, Eugene, OR, USA). The HaCaT cells (1 × 10^6 cells) were loaded for 15 min at 25 °C with 4 µM of Fluo-3 AM, which contained 0.02% Pluronic F-127 (Molecular probes) in an OPTIMEM medium, and then they were washed in the Tyrode’s buffer (145 mM of NaCl, 2.5 mM of KCl, 1.5 mM of CaCl2, 1.2 mM of MgCl2, 10 mM of D-glucose and 10 mM of HEPES; pH 7.4), resuspended in 2 mL of the Tyrode’s buffer and transferred into the quartz cuvette of the LS50B spectrofluorometer (Perkin Elmer, Waltham, MA, USA). Fluorescence was measured at 25 °C (excitation at λ = 488 nm; emission at λ = 516 nm) from the HaCaT cells, which had been pre-incubated with each pCB (6.0 µM of CBG, 4.0 of µM CBC, 9.0 µM of THCV and 13.0 µM of CBGA) and then stimulated with the selective TRPV1 agonist capsaicin (1 µM), as reported in [64]. The TRPV1-mediated intracellular Ca^2+ elevation was expressed as fluorescence intensity (arbitrary units, AU) per 10^6 cells.

The subject of another data set is human TRPV1. More on the design: method as in PMID 21175579. The following applies: over-expressed by HEK-293 cells; ref [41]; cited from earlier work.

Each structure is given as a SMILES string. pIC50: −log10 of the molar value.

Turning to `CCCCCc1cc(O)c(C/C=C(\C)CCC=C(C)C)c(O)c1C(=O)O` [CBGA, cannabigerolic acid], the “relative toxicity on HaCaT cells” value in the data set on HaCaT cells is recorded as “least toxic”. In addition, the pIC50 in the data set with HaCaT cells (6 h) is less than 4.60; in the data set with HaCaT cells (12 h), 4.61; with HaCaT cells (24 h) it was less than 4.60. Besides, the “activity of FAAH” value with FAAH was “significantly increased”. Besides, in the data set on MAGL, the “activity of MAGL” value is on record as “significantly increased”. Also, in the data set with TRPV1, the “TRPV1 channel stimulation (intracellular Ca2+ release triggered by capsaicin)” value (shortened to “TRPV1 channel stimulation”) is recorded as “significantly increased”.
For the molecule `CCCCCc1cc(O)c(C/C=C(\C)CCC=C(C)C)c(O)c1` [CBG, cannabigerol], the pIC50 in the data set with HaCaT cells (6 h) was 4.87; with HaCaT cells (12 h), 4.89; in the data set with HaCaT cells (24 h), 4.93. Besides, in the data set on FAAH, the “activity of FAAH” value is “significantly increased”. Besides, in the data set on MAGL, the “activity of MAGL” value is “significantly increased”. The “TRPV1 channel stimulation” value in the data set on TRPV1 is on record as “significantly increased”. Also, the “effectiveness in human TRPV1” value in the data set on human TRPV1 was “high effectiveness”.
As for `CCCc1cc(O)c2c(c1)OC(C)(C)[C@@H]1CCC(C)=C[C@@H]21` [THCV, Δ^9-tetrahydrocannabivarin], in the data set with HaCaT cells, the “relative toxicity on HaCaT cells” value is listed as “least toxic”. In addition, the results for the pIC50 in the data set with HaCaT cells (6 h), in the data set on HaCaT cells (12 h) and with HaCaT cells (24 h) were 4.84, 4.65 and 4.73, respectively. Further, the “activity of FAAH” value in the data set with FAAH is on record as “significantly increased”. The “activity of MAGL” value in the data set with MAGL was “significantly increased”. The “TRPV1 channel stimulation” value in the data set with TRPV1 is given as “significantly increased”. For the same molecule, in the data set with human TRPV1, the “effectiveness in human TRPV1” value was “high effectiveness”.
As for `CCCCCc1cc(O)c2c(c1)OC(C)(CCC=C(C)C)C=C2` (centres unmarked) [CBC, cannabichromene], the negative logarithm of the IC50 (pIC50) with HaCaT cells (6 h) is 4.82; in the data set with HaCaT cells (12 h), 4.81; in the data set on HaCaT cells (24 h) it was 5.09. Besides, in the data set on FAAH, the “activity of FAAH” value is “significantly increased”. In addition, the “activity of MAGL” value in the data set on MAGL is on record as “significantly increased”. Further, in the data set with TRPV1, the “TRPV1 channel stimulation” value is “significantly increased”. Also, the “effectiveness in human TRPV1” value with human TRPV1 is reported as “to a lesser extent”.

(Values after publication PMC9145865, “Effects of Rare Phytocannabinoids on the Endocannabinoid System of Human Keratinocytes” (International Journal of Molecular Sciences, 2022).)
